Where a chain is given by its changes, count along the chain named.
Assays:
Type in all cases: biochemical
[1] = biological target: T1, Zea mays EPSPS variant Zm-H6 (868-H6) with K246G (H6-K246G) (Zea mays, UniProt O24566, A1R/A3W/A415G/A71Q/D401G/E301S/E390G/G101A/I207L/K245G/K83R/L97C/T278A/T360S/T440Q/V437R); test: Substrate saturation kinetic analysis with glyphosate, H6-K246G
T1 construct: 868-H6 plus K246G; E. coli BL21(DE3), Ni-NTA purified
T1 sequence (O24566 with tags, fused parts or gaps A1R/A3W/A71Q/K83R/L97C/G101A/I207L/K245G/T278A/E301S/T360S/E390G/D401G/A415G/V437R/T440Q): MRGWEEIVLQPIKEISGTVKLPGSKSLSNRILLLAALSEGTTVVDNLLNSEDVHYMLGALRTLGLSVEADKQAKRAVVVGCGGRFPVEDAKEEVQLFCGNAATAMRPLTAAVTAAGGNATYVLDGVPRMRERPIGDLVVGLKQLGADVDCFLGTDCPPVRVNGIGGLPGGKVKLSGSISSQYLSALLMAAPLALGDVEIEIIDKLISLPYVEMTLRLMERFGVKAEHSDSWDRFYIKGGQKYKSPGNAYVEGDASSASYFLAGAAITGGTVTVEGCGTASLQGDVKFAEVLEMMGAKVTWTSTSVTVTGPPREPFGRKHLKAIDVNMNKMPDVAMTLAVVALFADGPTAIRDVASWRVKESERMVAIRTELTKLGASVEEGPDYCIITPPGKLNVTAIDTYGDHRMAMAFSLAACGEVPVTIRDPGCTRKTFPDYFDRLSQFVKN

[2] = biological target: T2, Zea mays EPSPS variant Zm-H6 (868-H6) with R61Y (H6-R61Y) (Zea mays, UniProt O24566, A1R/A3W/A415G/A71Q/D401G/E301S/E390G/G101A/I207L/K83R/L97C/R60Y/T278A/T360S/T440Q/V437R); test: Substrate saturation kinetic analysis with glyphosate, H6-R61Y
T2 construct: 868-H6 plus R61Y; E. coli BL21(DE3), Ni-NTA purified
T2 sequence (O24566 with tags, fused parts or gaps A1R/A3W/R60Y/A71Q/K83R/L97C/G101A/I207L/T278A/E301S/T360S/E390G/D401G/A415G/V437R/T440Q): T1 sequence (O24566 with tags, fused parts or gaps A1R/A3W/A71Q/K83R/L97C/G101A/I207L/K245G/T278A/E301S/T360S/E390G/D401G/A415G/V437R/T440Q) with R61Y, G246K

[3] = biological target: Zea mays EPSPS variant Zm-G102A (Zea mays, UniProt O24566, G101A); test: Rapid two-rate method for (kcat/KM)*KI, Zm-G102A; conditions: [E] 0.07 uM, [Gly] 1000 uM
Zea mays EPSPS variant Zm-G102A, sequence (O24566 entry or part of it G101A): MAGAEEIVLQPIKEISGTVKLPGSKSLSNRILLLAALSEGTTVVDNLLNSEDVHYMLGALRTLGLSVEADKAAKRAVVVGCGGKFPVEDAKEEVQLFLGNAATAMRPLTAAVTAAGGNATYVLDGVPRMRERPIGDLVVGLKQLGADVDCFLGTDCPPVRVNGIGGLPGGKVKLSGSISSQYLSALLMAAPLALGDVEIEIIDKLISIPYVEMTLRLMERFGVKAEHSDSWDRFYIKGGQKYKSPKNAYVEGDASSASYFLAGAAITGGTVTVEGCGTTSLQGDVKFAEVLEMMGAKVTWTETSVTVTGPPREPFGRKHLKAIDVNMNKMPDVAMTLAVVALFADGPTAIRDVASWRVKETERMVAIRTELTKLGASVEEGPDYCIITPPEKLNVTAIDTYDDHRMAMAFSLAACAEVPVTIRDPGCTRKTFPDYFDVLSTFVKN
Source text: There are several practical considerations for accurately estimating (kcat/KM)*KI with the rapid method. […] 2) The inhibitor concentration must be adjusted so as to obtain a degree of inhibition that minimally amplifies the error in the term v0-vi in Equation 3. If inhibition is too little, v0-vi will be small, and the error in the multiplier vi×v0/(v0-vi) will be large. […] 3) Substrate concentration should be set at the approximate KM of the parental variant(s), subject to the sensitivity of the assay. High substrate concentration obscures sensitivity to the inhibitor and reduces stringency for capturing improvements in KM. Depending on the necessity for speed, there exists opportunity for customizing enzyme and inhibitor concentrations. […] The rapid method was repeated for those and obtained data that correlated better with data obtained by substrate saturation analysis. For screening purposes however, that correlation step is not necessary. Conditions can be set so that variants with a pre-determined minimal fitness level are accurately quantified.
In Table 15, parameters above the heavy line for the rapid method were obtained under standard conditions. For variants shown below the heavy line, the rapid analysis was repeated with enzyme or glyphosate concentrations adjusted as needed to generate sufficient signal within the limits for linear initial rates.

[4] = biological target: T3, Zea mays EPSPS variant Zm-H6 (868-H6) with D196V (H6-D196V) (Zea mays, UniProt O24566, A1R/A3W/A415G/A71Q/D195V/D401G/E301S/E390G/G101A/I207L/K83R/L97C/T278A/T360S/T440Q/V437R); test: Substrate saturation kinetic analysis with glyphosate, H6-D196V
T3 construct: shuffled variant 868-H6 plus D196V; E. coli BL21(DE3), Ni-NTA purified
T3 sequence (O24566 with tags, fused parts or gaps A1R/A3W/A71Q/K83R/L97C/G101A/D195V/I207L/T278A/E301S/T360S/E390G/D401G/A415G/V437R/T440Q): T1 sequence (O24566 with tags, fused parts or gaps A1R/A3W/A71Q/K83R/L97C/G101A/I207L/K245G/T278A/E301S/T360S/E390G/D401G/A415G/V437R/T440Q) with D196V, G246K

For `O=C(O)CNCP(=O)(O)O` [glyphosate, N-phosphonomethylglycine], the Ki [1] was 284 µM, the “(kcat/KM)*KI” value ([1]; substrate saturation, H6-K246G) was 2490 and the Ki [2] was 309 µM. For the same molecule, the “(kcat/KM)*KI” value ([2]; substrate saturation, H6-R61Y) was 1640, the “(kcat/KM)*KI” value [3] was 3596 and the Ki [4] was 699 µM. The “(kcat/KM)*KI” value ([4]; substrate saturation, H6-D196V) was 1860.
